Laboratory results: ChEMBL document CHEMBL6092221, “Discovery of a Novel Macrocyclic Noncovalent CDK7 Inhibitor for Cancer Therapy” (J Med Chem, 2024)

Legend:
[1] = AUC(0 to infinity) in female Balb/c nude mouse at 1 mg/kg, iv; assay type: ADME, organism-based; conditions: in vivo
[2] = Permeability in human Caco-2 cells; assay type: ADME, cell-based; conditions: read-out: permeability
[3] = Metabolic stability in mouse liver microsomes assessed as intrinsic clearance; assay type: ADME, Microsome; conditions: read-out: CLH
[4] = Cmax in female Balb/c nude mouse at 10 mg/kg, po; assay type: ADME, organism-based; conditions: in vivo
[5] = Clearance in female Balb/c nude mouse at 1 mg/kg, iv; assay type: ADME, organism-based; conditions: in vivo
[6] = Efflux ratio of permeability in human Caco-2 cells; assay type: ADME, cell-based
HCC70 = assay: cells; conditions: Homo sapiens, HCC70, 72 h
Description: Antiproliferative activity against human HCC70 cells assessed as inhibition of cell proliferation incubated for 72 hrs by celltiter-glo assay

[7] = molecular target: Cyclin-dependent kinase 7/ cyclin H (Homo sapiens, UniProt P50613); assay: Binding affinity to CDK7/CyclinH (unknown origin) assessed as dissociation constant by SPR assay; assay type: protein-complex assay
Sequence of Cyclin-dependent kinase 7/ cyclin H (P51946 whole entry): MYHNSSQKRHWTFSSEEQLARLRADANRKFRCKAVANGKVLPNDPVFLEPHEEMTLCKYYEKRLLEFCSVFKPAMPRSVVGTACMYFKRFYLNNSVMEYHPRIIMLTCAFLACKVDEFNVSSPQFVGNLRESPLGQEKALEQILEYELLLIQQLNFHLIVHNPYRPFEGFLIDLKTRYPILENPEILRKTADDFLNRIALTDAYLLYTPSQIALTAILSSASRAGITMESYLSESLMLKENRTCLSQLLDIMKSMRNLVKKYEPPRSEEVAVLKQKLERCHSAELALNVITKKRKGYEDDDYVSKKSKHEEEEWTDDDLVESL
Sequence of Cyclin-dependent kinase 7/ cyclin H (P50613 whole entry): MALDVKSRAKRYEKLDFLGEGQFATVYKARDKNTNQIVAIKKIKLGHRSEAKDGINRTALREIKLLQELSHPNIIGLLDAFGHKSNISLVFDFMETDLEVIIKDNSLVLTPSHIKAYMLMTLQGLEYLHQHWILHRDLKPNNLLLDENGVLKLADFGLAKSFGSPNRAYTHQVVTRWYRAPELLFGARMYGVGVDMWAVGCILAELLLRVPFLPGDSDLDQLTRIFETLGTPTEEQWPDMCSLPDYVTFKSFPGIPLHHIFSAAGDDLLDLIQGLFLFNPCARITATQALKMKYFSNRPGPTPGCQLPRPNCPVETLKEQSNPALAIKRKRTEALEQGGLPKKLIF

[8] = AUC(0 to infinity) in female Balb/c nude mouse at 10 mg/kg, po; assay type: ADME, organism-based; conditions: in vivo
[9] = Half life in female Balb/c nude mouse at 10 mg/kg, po; assay type: ADME, organism-based; conditions: in vivo
[10] = Oral bioavailability in female Balb/c nude mouse at 10 mg/kg; assay type: ADME, organism-based; conditions: in vivo
[11] = Volume of distribution at steady state in female Balb/c nude mouse at 1 mg/kg, iv; assay type: ADME, organism-based; conditions: in vivo, read-out: Vdss
[12] = AUC(0 to t) in female Balb/c nude mouse at 5 mg/kg, po; assay type: ADME, organism-based; conditions: in vivo
[13] = Oral bioavailability in female Balb/c nude mouse at 5 mg/kg; assay type: ADME, organism-based; conditions: in vivo
[14] = Half life in female Balb/c nude mouse at 5 mg/kg, po; assay type: ADME, organism-based; conditions: in vivo
[15] = Cmax in female Balb/c nude mouse at 5 mg/kg, po; assay type: ADME, organism-based; conditions: in vivo
OVCAR-3 = assay: cells; conditions: Homo sapiens, OVCAR-3, 72 h
Description: Antiproliferative activity against human OVCAR-3 cells assessed as inhibition of cell proliferation incubated for 72 hrs by celltiter-glo assay

CDK7/Cyclin H/MNAT1 = CDK7/Cyclin H/MNAT1 (Homo sapiens, UniProt P50613); assay: Inhibition of CDK7/CyclinH/MAT1 (unknown origin) in presence of ATP by kinase activity assay; assay type: protein-complex assay
Sequence of CDK7/Cyclin H/MNAT1 (P51946 whole entry): as the sequence (P51946 whole entry) above
Sequence of CDK7/Cyclin H/MNAT1 (P50613 whole entry): as the sequence (P50613 whole entry) above
Sequence of CDK7/Cyclin H/MNAT1 (P51948 whole entry, further chain): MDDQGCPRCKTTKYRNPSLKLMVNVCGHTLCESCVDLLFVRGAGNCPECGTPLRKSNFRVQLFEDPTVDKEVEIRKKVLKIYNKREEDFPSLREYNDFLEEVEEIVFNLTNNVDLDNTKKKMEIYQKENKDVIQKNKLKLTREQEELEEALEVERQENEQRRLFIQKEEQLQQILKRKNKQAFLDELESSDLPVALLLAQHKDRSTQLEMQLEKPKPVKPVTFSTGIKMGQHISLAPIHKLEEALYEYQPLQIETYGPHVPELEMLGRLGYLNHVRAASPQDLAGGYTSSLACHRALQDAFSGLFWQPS

AUC(0-inf) [1] [ng·h/mL]	Papp [2] [×10⁻⁶ cm/s]	CLint scaled [3] [mL/min/kg]	Cmax [4] [ng/mL]	clearance [5] [mL/min/kg]	efflux ratio [6]	Kd [7] [nM]	AUC(0-inf) [8] [ng·h/mL]	half-life [9] [h]	bioavailability [10] [%]	Vd [11] [L/kg]	AUC(0-t) [12] [ng·h/mL]	bioavailability [13] [%]	half-life [14] [h]	Cmax [15] [ng/mL]	IC50 (OVCAR-3) [nM]	IC50 (CDK7/Cyclin H/MNAT1) [nM]	SMILES	IC50 (HCC70) [nM]
	0.72			62.5	19.2					5.6	302	22.7	2.1	105	105		CN1CCCCN(C)[C@H]2CC[C@@H](C2)Nc2ncc(C(F)(F)F)c(n2)-c2c[nH]c3c(P(C)(C)=O)c(ccc23)C1=O	22
	26			45.8	1.1	3.5				1	563	30.9	1	343	180		CN1CCCCO[C@H]2CC[C@@H](C2)Nc2ncc(C(F)(F)F)c(n2)-c2c[nH]c3c(P(C)(C)=O)c(ccc23)C1=O	243
	1.91			55.3	11.2	0.12				3.6	365	24.3	2.4	170	59.1		CN1C[C@@H](F)CCN(C)[C@H]2CC[C@@H](C2)Nc2ncc(C(F)(F)F)c(n2)-c2c[nH]c3c(P(C)(C)=O)c(ccc23)C1=O	66.5

Further lines, the compound ahead of its results:

SMILES	AUC(0-inf) [1] [ng·h/mL]	Papp [2] [×10⁻⁶ cm/s]	CLint scaled [3] [mL/min/kg]	Cmax [4] [ng/mL]	clearance [5] [mL/min/kg]	efflux ratio [6]	Kd [7] [nM]	AUC(0-inf) [8] [ng·h/mL]	half-life [9] [h]	bioavailability [10] [%]	Vd [11] [L/kg]	AUC(0-t) [12] [ng·h/mL]	bioavailability [13] [%]	half-life [14] [h]	Cmax [15] [ng/mL]	IC50 (OVCAR-3) [nM]	IC50 (CDK7/Cyclin H/MNAT1) [nM]	IC50 (HCC70) [nM]
CP(C)(=O)c1c2ccc3c(c[nH]c13)-c1nc(ncc1C(F)(F)F)N[C@H]1CC[C@@H](C1)NCCCCNC2=O	333	< 0.48	< 13.4	16.8	49.3	> 15.1	0.16	26	1.4	0.7	3.6							33
CP(C)(=O)c1c2ccc3c(c[nH]c13)-c1nc(ncc1C(F)(F)F)N[C@H]1CC[C@@H](C1)NCCCCCNC2=O																		202
O=C1NCCOCCN2CC[C@@H](C2)Nc2ncc(C(F)(F)F)c(n2)-c2c[nH]c3cc1ccc23																	11	1820
